The text below walks through data of US11780839B2, “Compounds for treating Huntington's disease” (PTC THERAPEUTICS, INC., priority 2018, dated 2023).

This test deals with Endogenous Huntingtin Protein. Nature of the test: Endogenous Huntingtin Protein Assay (ELISA-based Meso Scale Discovery electrochemiluminescence). Type of test: cell-based. As to conditions: MSD electrochemiluminescence, Table 1. Put shortly: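 Huntingtin was captured overnight at 4 °C on plates coated with 1 μg/mL MW1 (polyQ-expanded) or MAB2166 antibody and BSA-blocked. Detection used a rabbit monoclonal and then a SULFO-TAG goat anti-rabbit antibody (0.25 μg/mL, 1 h each, room temperature). Signal was read by electrochemiluminescence.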
For `Cn1cc(-c2ccc(-c3cnc(NC4CC(C)(C)NC(C)(C)C4)nn3)c(O)c2)cn1` [Cpd 199, 5-(1-methyl-1H-pyrazol-4-yl)-2-{3-[(2,2,6,6-tetramethylpiperidin-4-yl)amino]-1,2,4-triazin-6-yl}phenol], the IC50 is at most 100 nM. For the compound `Cn1ccc(-c2ccc(-c3cnc(N4CCC(NC(C)(C)C)C4)nn3)c(O)c2)cc1=O` (stereo not shown) [Cpd 214, 4-(4-{3-[3-(tert-butylamino)pyrrolidin-1-yl]-1,2,4-triazin-6-yl}-3-hydroxyphenyl)-1-methylpyridin-2(1H)-one], the IC50 was at most 100 nM.

Compound `N[C@H]1CC[C@@H]2CN(c3ncc(-c4ccc(-c5cn[nH]c5)cc4O)nn3)C[C@@H]21` [Cpd 165, 2-{3-[(3aR,4S,6aS)-4-aminohexahydrocyclopenta[c]pyrrol-2(1H)-yl]-1,2,4-triazin-6-yl}-5-(1H-pyrazol-4-yl)phenol] displayed an IC50 of at most 100 nM. `CN1CCC2(CC1)CN(c1ncc(-c3ccc(-c4c[nH]nn4)cc3O)nn1)C2` [Cpd 245, 2-[3-(7-methyl-2,7-diazaspiro[3.5]nonan-2-yl)-1,2,4-triazin-6-yl]-5-(1H-1,2,3-triazol-4-yl)phenol]: the IC50 was at most 100 nM. In turn, `CN(c1ncc(-c2ccc(-c3cnn(C4CC4)c3)cc2O)nn1)C1CC(C)(C)NC(C)(C)C1` [Cpd 101, 5-(1-cyclopropyl-1H-pyrazol-4-yl)-2-{3-[methyl(2,2,6,6-tetramethylpiperidin-4-yl)amino]-1,2,4-triazin-6-yl}phenol] yielded an IC50 of 100 to 500 nM.

Regarding `[2H]C([2H])([2H])n1cc(-c2ccc(-c3cnc(NC4CC(C)(C)NC(C)(C)C4)nn3)c(O)c2)cn1` [Cpd 373, 5-[1-(^2H3)methyl-1H-pyrazol-4-yl]-2-{3-[(2,2,6,6-tetramethylpiperidin-4-yl)amino]-1,2,4-triazin-6-yl}phenol], the IC50 is at most 100 nM.

As for `Cc1cn(-c2ccc(-c3cnc(N(C)C4CC(C)(C)NC(C)(C)C4)nn3)c(O)c2)cn1` [Cpd 10, 5-(4-methyl-1H-imidazol-1-yl)-2-{3-[methyl(2,2,6,6-tetramethylpiperidin-4-yl)amino]-1,2,4-triazin-6-yl}phenol], the IC50 was at most 100 nM.

The compound `CN(C)[C@H]1CC[C@@H]2CN(c3ncc(-c4ccc(-c5cn[nH]c5)cc4O)nn3)C[C@@H]21` [Cpd 167, 2-{3-[(3aR,4S,6aS)-4-(dimethylamino)hexahydrocyclopenta[c]pyrrol-2(1H)-yl]-1,2,4-triazin-6-yl}-5-(1H-pyrazol-4-yl)phenol] registered an IC50 of at most 100 nM. On to `Cn1nnc(-c2ccc(-c3cnc(NC4CC(C)(C)NC(C)(C)C4)nn3)c(O)c2)n1` [Cpd 267, 5-(2-methyl-2H-tetrazol-5-yl)-2-{3-[(2,2,6,6-tetramethylpiperidin-4-yl)amino]-1,2,4-triazin-6-yl}phenol], for which the IC50 was at most 100 nM.

Compound `Oc1cc(-c2cn[nH]c2)ccc1-c1cnc(N2CCC3(CCNC3)CC2)nn1` [Cpd 181, 2-[3-(2,8-diazaspiro[4.5]decan-8-yl)-1,2,4-triazin-6-yl]-5-(1H-pyrazol-4-yl)phenol] had an IC50 above 500 nM.

`COc1cc(-c2ccc(-c3cnc(N4CCC(NC(C)C)C4)nn3)c(O)c2)ncn1` (stereo not shown) [Cpd 265, 5-(6-methoxypyrimidin-4-yl)-2-(3-{3-[(propan-2-yl)amino]pyrrolidin-1-yl}-1,2,4-triazin-6-yl)phenol] displayed an IC50 of at most 100 nM. On to `CN(c1ncc(-c2ccc(-c3ccnnc3)cc2O)nn1)C1CC(C)(C)NC(C)(C)C1` [Cpd 60, 2-{3-[methyl(2,2,6,6-tetramethylpiperidin-4-yl)amino]-1,2,4-triazin-6-yl}-5-(pyridazin-4-yl)phenol], for which the IC50 was at most 100 nM. For the compound `CN(c1ncc(-c2ccc(-n3cnc(Cl)c3)cc2O)nn1)C1CC(C)(C)NC(C)(C)C1` [Cpd 59, 5-(4-chloro-1H-imidazol-1-yl)-2-{3-[methyl(2,2,6,6-tetramethylpiperidin-4-yl)amino]-1,2,4-triazin-6-yl}phenol], the IC50 is at most 100 nM. `Oc1cc(-c2cn[nH]c2)ccc1-c1cnc(N2CC[C@@H](CNC3CCOCC3)C2)nn1` [Cpd 397, 2-{3-[(3S)-3-{[(oxan-4-yl)amino]methyl}pyrrolidin-1-yl]-1,2,4-triazin-6-yl}-5-(1H-pyrazol-4-yl)phenol]: the IC50 is at most 100 nM. `CN(c1ncc(-c2ccc(-c3cc[nH]n3)cc2O)nn1)C1CC(C)(C)NC(C)(C)C1` [Cpd 111, 2-{3-[methyl(2,2,6,6-tetramethylpiperidin-4-yl)amino]-1,2,4-triazin-6-yl}-5-(1H-pyrazol-3-yl)phenol]: the IC50 was at most 100 nM. As to `Oc1cc(-c2cn[nH]c2)ccc1-c1cnc(N2CCC3(CNC3)C2)nn1` [Cpd 110, 2-[3-(2,6-diazaspiro[3.4]octan-6-yl)-1,2,4-triazin-6-yl]-5-(1H-pyrazol-4-yl)phenol], the IC50 is 100 to 500 nM. Turning to `CC(C)NC1CCN(c2ncc(-c3ccc(-c4ncco4)cc3O)nn2)C1` (stereo not drawn) [Cpd 308, 5-(1,3-oxazol-2-yl)-2-(3-{3-[(propan-2-yl)amino]pyrrolidin-l-yl}-1,2,4-triazin-6-yl)phenol], the IC50 was 100 to 500 nM.

`Oc1cc(-c2cn[nH]c2)ccc1-c1cnc(N2CCC(CNCc3ccccn3)C2)nn1` (stereo not shown) [Cpd 388, 5-(1H-pyrazol-4-yl)-2-{3-[-({[(pyridin-2-yl)methyl]amino}methyl)pyrrolidin-1-yl]-1,2,4-triazin-6-yl}phenol]: the IC50 was at most 100 nM. Compound `CN(c1ncc(-c2ccc(-c3cnc4c(cnn4C)c3)cc2O)nn1)C1CC(C)(C)NC(C)(C)C1` [Cpd 176, 5-(1-methyl-1H-pyrazolo[3,4-b]pyridin-5-yl)-2-{3-[methyl(2,2,6,6-tetramethylpiperidin-4-yl)amino]-1,2,4-triazin-6-yl}phenol] registered an IC50 of at most 100 nM. Take `CC1(C)CC(Oc2ncc(-c3ccc(-n4nccn4)cc3O)nn2)CC(C)(C)N1` [Cpd 122, 2-{3-[(2,2,6,6-tetramethylpiperidin-4-yl)oxy]-1,2,4-triazin-6-yl}-5-(2H-1,2,3-triazol-2-yl)phenol]: the IC50 lay in the range of 100 to 500 nM. In turn, `CNC1CCN(c2ncc(-c3ccc(-c4ncccn4)cc3O)nn2)C1` (stereo not shown) [Cpd 270, 2-{3-[3-(methylamino)pyrrolidin-1-yl]-1,2,4-triazin-6-yl}-5-(pyrimidin-2-yl)phenol] had an IC50 of 1000 to 3000 nM. `CN(c1cnc(-c2ccc(-c3ccc4c(cnn4C)n3)cc2O)nn1)C1CC(C)(C)NC(C)(C)C1` [Cpd 394, 5-(1-methyl-1H-pyrazolo[4,3-b]pyridin-5-yl)-2-{6-[methyl(2,2,6,6-tetramethylpiperidin-4-yl)amino]-1,2,4-triazin-3-yl}phenol] had an IC50 of at most 100 nM. As to `CN(c1ncc(-c2ccc(-c3ccc4c(cnn4C)c3)cc2O)nn1)C1CC(C)(C)NC(C)(C)C1` [Cpd 177, 5-(1-methyl-1H-indazol-5-yl)-2-{3-[methyl(2,2,6,6-tetramethylpiperidin-4-yl)amino]-1,2,4-triazin-6-yl}phenol], the IC50 was at most 100 nM. The compound `CN(c1ncc(-c2ccc(-c3cnccn3)cc2O)nn1)C1CC(C)(C)NC(C)(C)C1` [Cpd 83, 2-{3-[methyl(2,2,6,6-tetramethylpiperidin-4-yl)amino]-1,2,4-triazin-6-yl}-5-(pyrazin-2-yl)phenol] came in with an IC50 of at most 100 nM.

Compound `CC(C)(C)N[C@H]1CCN(c2ncc(-c3ccc(-c4cn[nH]c4)cc3O)nn2)C1` [Cpd 355, 2-{3-[(3S)-3-(tert-butylamino)pyrrolidin-l-yl]-1,2,4-triazin-6-yl}-5-(1H-pyrazol-4-yl)phenol] gave an IC50 of at most 100 nM. As for `CN(c1ncc(-c2ccc(-c3ncccn3)cc2O)nn1)C1CC(C)(C)NC(C)(C)C1` [Cpd 85, 2-{3-[methyl(2,2,6,6-tetramethylpiperidin-4-yl)amino]-1,2,4-triazin-6-yl}-5-(pyrimidin-2-yl)phenol], the IC50 is at most 100 nM. Take `Oc1cc(-c2cn[nH]c2)ccc1-c1cnc(N2CC[C@@H](NC3CCC3)C2)nn1` [Cpd 399, 2-{3-[(3R)-3-(cyclobutylamino)pyrrolidin-1-yl]-1,2,4-triazin-6-yl}-5-(1H-pyrazol-4-yl)phenol]: the IC50 is at most 100 nM. `Oc1cc(-c2cn[nH]c2)ccc1-c1cnc(N2CCC(C3(NC4CCOCC4)CC3)C2)nn1` (stereo not shown) [Cpd 421, 2-[3-(3-{1-[(oxan-4-yl)amino]cyclopropyl}pyrrolidin-1-yl)-1,2,4-triazin-6-yl]-5-(1H-pyrazol-4-yl)phenol] had an IC50 of at most 100 nM. The value for `Cc1ncc(-c2ccc(-c3cnc(N(C)C4CC(C)(C)NC(C)(C)C4)nn3)c(O)c2)s1` [Cpd 64, 2-{3-[methyl(2,2,6,6-tetramethylpiperidin-4-yl)amino]-1,2,4-triazin-6-yl}-5-(2-methyl-1,3-thiazol-5-yl)phenol] was at most 100 nM; that for `CC1(C)CC(Oc2ncc(-c3ccc(-c4cc[nH]n4)cc3O)nn2)CC(C)(C)N1` [Cpd 107, 5-(1H-pyrazol-3-yl)-2-{3-[(2,2,6,6-tetramethylpiperidin-4-yl)oxy]-1,2,4-triazin-6-yl}phenol] was 1000 to 3000 nM; that for `Oc1cc(-c2cn[nH]c2)ccc1-c1cnc(N2CCC(NC34CC5CC(CC(C5)C3)C4)C2)nn1` (stereo not shown) [Cpd 157, 2-(3-{3-[(adamantan-1-yl)amino]pyrrolidin-1-yl}-1,2,4-triazin-6-yl)-5-(1H-pyrazol-4-yl)phenol] was 100 to 500 nM. Compound `Oc1cc(-c2cn[nH]c2)ccc1-c1cnc(N2CC[C@H]3NCC[C@@H]32)nn1` [Cpd 332, 2-{3-[(3aR,6aS)-hexahydropyrrolo[3,2-b]pyrrol-1(2H)-yl]-1,2,4-triazin-6-yl}-5-(1H-pyrazol-4-yl)phenol] showed an IC50 of at most 100 nM. `CN1CCC2(CC1)CN(c1ncc(-c3ccc(-n4cnc(F)c4)cc3O)nn1)C2` [Cpd 230, 5-(4-fluoro-1H-imidazol-1-yl)-2-[3-(7-methyl-2,7-diazaspiro[3.5]nonan-2-yl)-1,2,4-triazin-6-yl]phenol] came in with an IC50 above 500 nM. The compound `CC1(C)C[C@H](Nc2ncc(-c3ccc(-c4cn5ccnc5cn4)cc3O)nn2)[C@H](F)C(C)(C)N1` [Cpd 248, 2-(3-{[(3S,4S)-3-fluoro-2,2,6,6-tetramethylpiperidin-4-yl]amino}-1,2,4-triazin-6-yl)-5-(imidazo[1,2-a]pyrazin-6-yl)phenol] gave an IC50 of at most 100 nM.
